Experimental data published in US6358999B2, “Use of zinc tranexamate in the treatment of diabetes” (Hamari Chemicals, LTD, priority 2000, dated 2002).

Tests used:
intestinal α-glucosidase [1] = test: Inhibition of intestinal α-glucosidase activity of streptozocin-induced diabetic mouse; assay type: biochemical; settings: for Glucose (glucose production from maltose) / Glucose (glucose production from sucrose): diabetic mouse; for Glucose (glucose production from maltose): substrate maltose; for Glucose (glucose production from sucrose): substrate sucrose
Procedure: (§1) Intestinal tract enucleated from a normal mouse was homogenized by the conventional method after removing membrane mucosa. As a substrate, sucrose, starch, maltose or isomaltose was used. The homogenate was incubated with the substrate in the presence of a test compound (Y-4 or zinc chloride) at 37° C. for 30 minutes. The reaction mixture was centrifuged and the glucose concentration in the resulting supernatant was assayed. The glucose assay was conducted calorimetrically by adding a chromogenic reagent (0.47 mol/l of orthotoluidine, 16 mol/l of acetic acid, 10 mmol/l of boric acid) to the supernatant, heating the mixture in a boiling water bath for 8 minutes and measuring the absorbance at 635 nm. α-Glucosidase activity expressed in terms of glucose concentration/mg protein was calculated.
Example 5 was repeated using intestinal tract enucleated from a diabetic mouse induced by the treatment with streptozocin instead of intestinal tract enucleated from a normal mouse to determine the inhibitory effect of Y-4 on α-glycosidase activity. The intestinal α-glucosidase activity was higher in streptozocin-induced diabetic mouse than in normal mouse. […] The inhibitory effect of Y-4 was more remarkable in the diabetic mouse than in normal mouse.

[2] = 1,200 mg/kg orally administered to mice; cited from earlier work
[3] = Improvement of insulin resistance in Wistar fatty rats with type II diabetes (glucose loading after 8 weeks); assay type: in vivo; settings: 150 mg/kg daily p.o. 8 weeks, after glucose 2.5 g/kg
Procedure: Y-4 was orally administered to male Wistar fatty rats (WFR) having tyep II diabetes with obesity and hyperlipidemia at an average daily dose of 150 mg/kg for consecutive 8 weeks. Eight weeks after the initiation of administration, the rats were fasted for 20 hours and then given oral administration of 2.5 g/kg/rat of glucose. Blood samples were collected from the tail vein at 30, 60, 120 and 180 minutes after the administration of glucose for assaying blood sugar and insulin levels. The results are shown in FIG. 3 and FIG. 4, respsectively.

[4] = Blood sugar and insulin levels in streptozocin-induced diabetic mice after sucrose loading; assay type: in vivo; settings: STZ diabetic mice; for Blood sugar level: 200 mg/kg p.o. 30 minutes before sucrose 2 g/kg
Procedure: Experimental diabetes was induced in mice by treating the mice with streptozocin (STZ) (100 mg/kg/day i.p. for two days). After fasting for 17-24 hours, the mice were orally given Y-4 at varying doses 30 minutes before loading 2 g/kg of sucrose. After sucrose loading, blood samples were collected and assayed for blood sugar levels at different time intervals as in the preceding examples.
Similar to the above experiments, Y-4 was orally administered to the mice having experimental diabetes at a dose of 100 mg/kg 30 minutes before loading of 2 g of sucrose. Blood sugar and insulin levels in blood samples collected 30 minutes after sugar loading are shown in FIG. 1 and FIG. 2, respectively.

[5] = Suppressive effect on elevation of blood sugar level after sucrose loading in mice; assay type: in vivo
Procedure: Each group consisting of five mice was fasted for 17-24 hours and then Y-4 was orally administered at varying doses.
Mice were orally given 1 g/kg body weight of sucrose 30 minutes after the administration of Y-4 or 2 g/kg body weight of sucrose 2 hours after the administration of Y-4. As in the preceding example, blood samples were collected from the tail end of mice at different time intervals and assayed for blood sugar levels.

[6] = Suppressive effect on elevation of blood sugar level after glucose loading in mice; assay type: in vivo
Procedure: Each group consisting of five mice was fasted for 17-24 hours and then Y-4 was orally administered at varying doses. After 30 minutes, mice were given glucose orally at a dose of 1 g/kg body weight. Blood samples were collected from the tail end of mice at different time intervals and assayed for blood sugar levels using GLUTEST™ sensor available from Matsushita Kotobuki Electronic Industry Company.

intestinal α-glucosidase [7] = test: Inhibition of intestinal α-glucosidase activity of normal mouse (intestinal homogenate, glucose production); assay type: biochemical; settings: for Glucose (glucose production from isomaltose): substrate isomaltose; for Glucose (glucose production from isomaltose) / Glucose (glucose production from maltose) / Glucose (glucose production from sucrose): 37° C., 30 minutes; for Glucose (glucose production from maltose): substrate maltose; for Glucose (glucose production from sucrose): substrate sucrose
Procedure: as §1

[8] = 100 mg/kg p.o. 30 minutes before sucrose, 30 minutes after sugar loading

## NC[C@H]1CC[C@H](C(=O)[O-])CC1.NC[C@H]1CC[C@H](C(=O)[O-])CC1.O.[Zn+2] [Y-4, zinc tranexamate monohydrate]
Intestinal α-glucosidase [1]; inhibitor 5 mM
  Glucose (glucose production from maltose): 23.060 ± 1.129 mg/mg protein
  Glucose (glucose production from sucrose): 10.128 ± 1.137 mg/mg protein
Intestinal α-glucosidase [1]; inhibitor 10 mM
  Glucose (glucose production from maltose): 18.569 ± 1.617 mg/mg protein
  Glucose (glucose production from sucrose): 5.312 ± 1.113 mg/mg protein
Intestinal α-glucosidase [1]; inhibitor 30 mM
  Glucose (glucose production from maltose): 15.113 ± 0.093 mg/mg protein
  Glucose (glucose production from sucrose): 3.146 ± 0.157 mg/mg protein
Intestinal α-glucosidase [1]; inhibitor 50 mM
  Glucose (glucose production from maltose): 12.793 ± 0.337 mg/mg protein
  Glucose (glucose production from sucrose): 2.251 ± 0.327 mg/mg protein
Intestinal α-glucosidase [1]; streptozocin-induced diabetic mouse
  Inhibition of intestinal α-glucosidase, all substrates: remarkably inhibited
[2]
  Acute toxicity (death): no death
[3]
  Blood sugar level (FIG. 3): significantly controlled
  Insulin level (FIG. 4): normalized
[4]; [8]
  Blood sugar level (FIG. 1): suppressed the elevation of blood sugar level almost completely
  Insulin level (FIG. 2): not significantly different from the control value of normal mice group
[4]; 20 min.
  Blood sugar level: 96.8 mg/dL
[4]; 40 min.
  Blood sugar level: 134.2 mg/dL
[4]; 60 min.
  Blood sugar level: 138.2 mg/dL
[4]; 90 min.
  Blood sugar level: 137.0 mg/dL
[4]; 180 min.
  Blood sugar level: 131.8 mg/dL
[4]; 30 minutes before sucrose loading, up to 3 hours
  Elevation of blood sugar level after sucrose loading in diabetic mice: remarkably suppressed the elevation of blood sugar level
[5]; 50 mg/kg p.o. 30 minutes before sucrose 1 g/kg, 20 min.
  Blood sugar level: 71.0 ± 5.9 mg/dL
[5]; 50 mg/kg p.o. 30 minutes before sucrose 1 g/kg, 40 min.
  Blood sugar level: 90.8 ± 10.0 mg/dL
[5]; 50 mg/kg p.o. 30 minutes before sucrose 1 g/kg, 60 min.
  Blood sugar level: 76.6 ± 9.9 mg/dL
[5]; 50 mg/kg p.o. 30 minutes before sucrose 1 g/kg, 90 min.
  Blood sugar level: 68.0 ± 8.1 mg/dL
[5]; 100 mg/kg and 200 mg/kg 30 minutes before sucrose loading, up to 90 minutes
  Elevation of blood sugar level after sucrose loading: significant suppressive effect
[5]; 100 mg/kg p.o. 30 minutes before sucrose 1 g/kg, 20 min.
  Blood sugar level: 50.8 ± 2.4 mg/dL
[5]; 100 mg/kg p.o. 30 minutes before sucrose 1 g/kg, 40 min.
  Blood sugar level: 59.3 ± 2.4 mg/dL
[5]; 100 mg/kg p.o. 30 minutes before sucrose 1 g/kg, 60 min.
  Blood sugar level: 72.9 ± 2.6 mg/dL
[5]; 100 mg/kg p.o. 30 minutes before sucrose 1 g/kg, 90 min.
  Blood sugar level: 60.6 ± 2.3 mg/dL
[5]; 200 mg/kg p.o. 30 minutes before sucrose 1 g/kg, 20 min.
  Blood sugar level: 40.4 ± 0.4 mg/dL
[5]; 200 mg/kg p.o. 30 minutes before sucrose 1 g/kg, 40 min.
  Blood sugar level: 53.2 ± 7.5 mg/dL
[5]; 200 mg/kg p.o. 30 minutes before sucrose 1 g/kg, 60 min.
  Blood sugar level: 58.2 ± 8.7 mg/dL
[5]; 200 mg/kg p.o. 30 minutes before sucrose 1 g/kg, 90 min.
  Blood sugar level: 57.6 ± 3.2 mg/dL
[5]; 200 mg/kg p.o. 2 hours before sucrose 2 g/kg, 20 min.
  Blood sugar level: 66.2 ± 6.3 mg/dL
[5]; 200 mg/kg p.o. 2 hours before sucrose 2 g/kg, 40 min.
  Blood sugar level: 84.6 ± 8.9 mg/dL
[5]; 200 mg/kg p.o. 2 hours before sucrose 2 g/kg, 60 min.
  Blood sugar level: 94.0 ± 18.0 mg/dL
[5]; 200 mg/kg p.o. 2 hours before sucrose 2 g/kg, 90 min.
  Blood sugar level: 94.4 ± 17.2 mg/dL
[6]; 50 mg/kg p.o. 30 min before glucose 1 g/kg, 20 min.
  Blood sugar level: 96.0 ± 3.5 mg/dL
[6]; 50 mg/kg p.o. 30 min before glucose 1 g/kg, 40 min.
  Blood sugar level: 104.8 ± 7.1 mg/dL
[6]; 50 mg/kg p.o. 30 min before glucose 1 g/kg, 60 min.
  Blood sugar level: 99.0 ± 14.0 mg/dL
[6]; 50 mg/kg p.o. 30 min before glucose 1 g/kg, 120 min.
  Blood sugar level: 78.4 ± 6.4 mg/dL
[6]; 50 mg/kg p.o. 30 min before glucose 1 g/kg, 180 min.
  Blood sugar level: 58.4 ± 6.0 mg/dL
[6]; 100 mg/kg p.o. 30 min before glucose 1 g/kg, 20 min.
  Blood sugar level: 89.0 ± 2.9 mg/dL
[6]; 100 mg/kg p.o. 30 min before glucose 1 g/kg, 40 min.
  Blood sugar level: 112.6 ± 5.0 mg/dL
[6]; 100 mg/kg p.o. 30 min before glucose 1 g/kg, 60 min.
  Blood sugar level: 97.6 ± 0.9 mg/dL
[6]; 100 mg/kg p.o. 30 min before glucose 1 g/kg, 120 min.
  Blood sugar level: 73.1 ± 2.5 mg/dL
[6]; 100 mg/kg p.o. 30 min before glucose 1 g/kg, 180 min.
  Blood sugar level: 52.1 ± 1.9 mg/dL
[6]; 200 mg/kg p.o. 30 min before glucose 1 g/kg, 20 min.
  Blood sugar level: 83.0 ± 4.1 mg/dL
[6]; 200 mg/kg p.o. 30 min before glucose 1 g/kg, 40 min.
  Blood sugar level: 95.2 ± 3.6 mg/dL
[6]; 200 mg/kg p.o. 30 min before glucose 1 g/kg, 60 min.
  Blood sugar level: 84.4 ± 2.8 mg/dL
[6]; 200 mg/kg p.o. 30 min before glucose 1 g/kg, 120 min.
  Blood sugar level: 66.2 ± 3.3 mg/dL
[6]; 200 mg/kg p.o. 30 min before glucose 1 g/kg, 180 min.
  Blood sugar level: 53.9 ± 2.1 mg/dL
[6]; varying oral doses 30 minutes before glucose 1 g/kg
  Elevation of blood sugar level after glucose loading: suppressed elevation of blood sugar level
Intestinal α-glucosidase [7]; inhibitor 5 mM
  Glucose (glucose production from isomaltose): 5.009 ± 0.387 mg/mg protein
  Glucose (glucose production from maltose): 17.956 ± 0.423 mg/mg protein
  Glucose (glucose production from sucrose): 4.078 ± 0.073 mg/mg protein
Intestinal α-glucosidase [7]; inhibitor 10 mM
  Glucose (glucose production from isomaltose): 4.150 ± 0.351 mg/mg protein
  Glucose (glucose production from maltose): 14.810 ± 0.956 mg/mg protein
  Glucose (glucose production from sucrose): 1.682 ± 0.097 mg/mg protein
Intestinal α-glucosidase [7]; inhibitor 30 mM
  Glucose (glucose production from isomaltose): 3.473 ± 0.520 mg/mg protein
  Glucose (glucose production from maltose): 10.963 ± 0.399 mg/mg protein
  Glucose (glucose production from sucrose): 0.726 ± 0.157 mg/mg protein
Intestinal α-glucosidase [7]; inhibitor 50 mM
  Glucose (glucose production from isomaltose): 3.158 ± 0.206 mg/mg protein
  Glucose (glucose production from maltose): 5.353 ± 0.017 mg/mg protein
  Glucose (glucose production from sucrose): 0.436 ± 0.036 mg/mg protein
Intestinal α-glucosidase [7]; sucrose, starch, maltose, isomaltose, concentration higher than 5 mM
  α-Glucosidase activity, all substrates: inhibited α-glucosidase activity in the reaction with all substrates
